Assay results taken from ChEMBL document CHEMBL3885861, “Open TG-GATES”.

Organism: Rattus norvegicus
Experiment: Open TG-GATES - Regimen: Daily Repeat
Format: toxicity, organism-based, Sprague-Dawley
Design: regimen Daily Repeat, gender Male, age 6 weeks
Details: in vivo, po, route gavage; for gamma-GTP / ALP / ALT / AST / BUN / CRE / Ca / Cl / DBIL / GLC / IP / K / LDH / Na / PL / RALB / TBIL / TC / TG / TP: tissue Plasma; for KIDNEY_L / KIDNEY_R / KIDNEY_TOTAL: tissue Kidney
[1] = 25 mg/kg, 72 h, dose level Low, time 3 day
[2] = 25 mg/kg, 72 h, tissue Blood, dose level Low, time 3 day
[3] = 25 mg/kg, […], dose level Low, time 7 day
[4] = 25 mg/kg, […], dose level Low, time 14 day
[5] = 25 mg/kg, […], dose level Low, time 28 day
[6] = 25 mg/kg, […], tissue Blood, dose level Low, time 7 day
[7] = 25 mg/kg, […], tissue Blood, dose level Low, time 14 day
[8] = 25 mg/kg, […], tissue Blood, dose level Low, time 28 day

SMILES: O=C1CN(/N=C/c2ccc(-c3ccc([N+](=O)[O-])cc3)o2)C(O)=N1 [DANTROLENE]
- gamma-GTP (0 mg/kg, […], dose level Control, time 28 day): 1.2 IU/L
- TERMINAL_BW [1]: 228.7 g
- APTT [2]: 19.4 s
- Bas [2]: 0%
- Eos [2]: 1%
- Fbg [2]: 221.4 mg/dL
- Hb [2]: 13.7 g/dL
- Lym [2]: 78%
- MCH [2]: 21.8 pg
- MCHC [2]: 33.8%
- MCV [2]: 64.6 fL
- Mono [2]: 8.4%
- Plat [2]: 138.1 x10_4/uL
- RBC [2]: 624.8 x10_4/ul
- Ret [2]: 5.3%
- WBC [2]: 107 x10_2/uL
- KIDNEY_L [1]: 1.1 g
- KIDNEY_R [1]: 1.1 g
- KIDNEY_TOTAL [1]: 2.2 g
- ALP [1]: 873.2 IU/L
- ALT [1]: 37.8 IU/L
- AST [1]: 75 IU/L
- BUN [1]: 19.6 mg/dL
- CRE [1]: 0.6 mg/dL
- Ca [1]: 10.8 mg/dL
- Cl [1]: 104.4 meq/L
- DBIL [1]: 0.004 mg/dL
- GLC [1]: 194.8 mg/dL
- IP [1]: 6.2 mg/dL
- K [1]: 4.5 meq/L
- LDH [1]: 102.4 IU/L
- Na [1]: 139.8 meq/L
- PL [1]: 151.8 mg/dL
- RALB [1]: 4 g/dL
- TBIL [1]: 0.3 mg/dL
- TC [1]: 73.8 mg/dL
- TG [1]: 122.4 mg/dL
- TP [1]: 5.8 g/dL
- gamma-GTP [1]: 0.6 IU/L
- TERMINAL_BW [3]: 252.5 g
- TERMINAL_BW [4]: 308.4 g
- TERMINAL_BW [5]: 376.7 g
- APTT [6]: 16.1 s
- Bas [6]: 0%
- Eos [6]: 1.2%
- Fbg [6]: 215 mg/dL
- Hb [6]: 14.4 g/dL
- Lym [6]: 79%
- MCH [6]: 20.9 pg
- MCHC [6]: 33.9%
- MCV [6]: 61.5 fL
- Mono [6]: 8%
- Plat [6]: 108.3 x10_4/uL
- RBC [6]: 689.4 x10_4/ul
- Ret [6]: 4.6%
- WBC [6]: 121.3 x10_2/uL
- APTT [7]: 17.2 s
- Bas [7]: 0%
- Eos [7]: 0.8%
- Fbg [7]: 222.2 mg/dL
- Hb [7]: 14.8 g/dL
- Lym [7]: 85.2%
- MCH [7]: 20.3 pg
- MCHC [7]: 33.8%
- MCV [7]: 60.1 fL
- Mono [7]: 4.8%
- Plat [7]: 122.4 x10_4/uL
- RBC [7]: 726.6 x10_4/ul
- Ret [7]: 3.9%
- WBC [7]: 111.4 x10_2/uL
- APTT [8]: 17.2 s
- Bas [8]: 0%
- Eos [8]: 1%
- Fbg [8]: 211 mg/dL
- Hb [8]: 15.6 g/dL
- Ht [8]: 45.9%
- Lym [8]: 82%
- MCH [8]: 20 pg
- MCHC [8]: 34%
- MCV [8]: 58.9 fL
- Mono [8]: 4.8%
- Plat [8]: 112.7 x10_4/uL
- RBC [8]: 779 x10_4/ul
- Ret [8]: 2.9%
- KIDNEY_L [3]: 1.1 g
- KIDNEY_R [3]: 1.2 g
- KIDNEY_TOTAL [3]: 2.3 g
- KIDNEY_L [4]: 1.2 g
- KIDNEY_R [4]: 1.3 g
- KIDNEY_TOTAL [4]: 2.5 g
- KIDNEY_L [5]: 1.4 g
- KIDNEY_R [5]: 1.5 g
- KIDNEY_TOTAL [5]: 2.9 g
- ALP [3]: 808 IU/L
- ALT [3]: 35 IU/L
- AST [3]: 68.8 IU/L
- BUN [3]: 17 mg/dL
- CRE [3]: 0.6 mg/dL
- Ca [3]: 10.8 mg/dL
- Cl [3]: 107.8 meq/L
- DBIL [3]: 0.014 mg/dL
- GLC [3]: 192.8 mg/dL
- IP [3]: 6.1 mg/dL
- K [3]: 5 meq/L
- LDH [3]: 121.4 IU/L
- Na [3]: 138.8 meq/L
- PL [3]: 151.4 mg/dL
- RALB [3]: 3.9 g/dL
- TBIL [3]: 0.4 mg/dL
- TC [3]: 77 mg/dL
- TG [3]: 92.6 mg/dL
- TP [3]: 5.7 g/dL
- gamma-GTP [3]: 1 IU/L
- ALP [4]: 770 IU/L
- ALT [4]: 33.2 IU/L
- AST [4]: 69.6 IU/L
- BUN [4]: 18.6 mg/dL
- CRE [4]: 0.6 mg/dL
- Ca [4]: 10.6 mg/dL
- Cl [4]: 104.2 meq/L
- DBIL [4]: 0.01 mg/dL
- GLC [4]: 198 mg/dL
- IP [4]: 6.1 mg/dL
- K [4]: 4.3 meq/L
- LDH [4]: 112.8 IU/L
- Na [4]: 141.6 meq/L
- PL [4]: 148.8 mg/dL
- RALB [4]: 3.9 g/dL
- TBIL [4]: 0.3 mg/dL
- TC [4]: 67.8 mg/dL
- TG [4]: 150.4 mg/dL
- TP [4]: 6 g/dL
- gamma-GTP [4]: 0.8 IU/L
- ALP [5]: 601.2 IU/L
- ALT [5]: 28.6 IU/L
- AST [5]: 55.8 IU/L
- BUN [5]: 18.2 mg/dL
- CRE [5]: 0.5 mg/dL
- Ca [5]: 10.6 mg/dL
- Cl [5]: 107.2 meq/L
- DBIL [5]: 0.018 mg/dL
- GLC [5]: 179 mg/dL
- IP [5]: 5 mg/dL
- K [5]: 4.3 meq/L
- LDH [5]: 106.6 IU/L
- Na [5]: 140.4 meq/L
- PL [5]: 154.8 mg/dL
- RALB [5]: 4 g/dL
- TBIL [5]: 0.3 mg/dL
- TC [5]: 76.4 mg/dL
- TG [5]: 145.8 mg/dL
- TP [5]: 6.2 g/dL
